Data on 1 compound can be found in article PMC5652080 (Current Enzyme Inhibition, 2015).

For test [1], the target named is Triosephosphate isomerase (G233D HsTIM) (Homo sapiens, UniProt P60174, G233D). Put plainly: coupled enzyme assay, Kmapp vs PEP at varied GAP. In kind it is biochemical.
Test [2] has as its target Triosephosphate isomerase (WT HsTIM) (Homo sapiens, UniProt P60174). Put plainly: coupled enzyme assay, Kmapp vs PEP at varied GAP. The format is biochemical.

Triosephosphate isomerase (WT HsTIM), sequence (P60174 2-249): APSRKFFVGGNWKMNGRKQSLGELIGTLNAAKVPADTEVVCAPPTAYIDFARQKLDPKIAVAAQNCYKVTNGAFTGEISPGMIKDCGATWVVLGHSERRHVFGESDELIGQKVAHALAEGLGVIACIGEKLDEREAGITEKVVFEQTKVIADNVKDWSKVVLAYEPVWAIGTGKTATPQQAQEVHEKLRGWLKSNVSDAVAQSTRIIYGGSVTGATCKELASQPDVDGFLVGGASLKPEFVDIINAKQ
Triosephosphate isomerase (G233D HsTIM), sequence (P60174 2-249 G233D): as the sequence (P60174 2-249) above, with G232D counted along it

For the compound `C=C(OP(=O)(O)O)C(=O)O` [phosphoenolpyruvate], the Ki in test [1] is 120 ± 5.2 µM; in test [2] it was 123 ± 5 µM.

For orientation: Ki means the equilibrium dissociation constant of an inhibitor or competing ligand from its target.
